Molecular target: Rv2624c (Mycobacterium tuberculosis, UniProt P9WFD5)
Sequence (P9WFD5 whole entry): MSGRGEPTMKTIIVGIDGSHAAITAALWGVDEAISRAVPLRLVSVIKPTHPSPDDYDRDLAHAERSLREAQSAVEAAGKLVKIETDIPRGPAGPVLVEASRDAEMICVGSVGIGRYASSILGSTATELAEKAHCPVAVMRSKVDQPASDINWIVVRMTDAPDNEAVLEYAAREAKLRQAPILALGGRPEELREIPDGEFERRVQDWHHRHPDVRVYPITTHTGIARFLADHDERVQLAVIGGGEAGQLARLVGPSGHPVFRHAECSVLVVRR

| Compound | HPLC of nucleotides extracted by boiling purified protein |
| --- | --- |
| Nc1ncnc2c1ncn2[C@@H]1O[C@H](COP(=O)(O)OP(=O)(O)O)[C@@H](O)[C@H]1O [ADP] | purified Rv2624c proteins from E. coli bound tightly to ATP and ADP after extensive purification steps |
| Nc1ncnc2c1ncn2[C@@H]1O[C@H](COP(=O)(O)OP(=O)(O)OP(=O)(O)O)[C@@H](O)[C@H]1O [ATP] | purified Rv2624c proteins from E. coli bound tightly to ATP and ADP after extensive purification steps |

From article PMC5071874, “Universal stress protein Rv2624c alters abundance of arginine and enhances intracellular survival by ATP binding in mycobacteria” (Scientific Reports, 2016)
